These results are taken from patent US20240174680A1, “CDK2 INHIBITORS AND METHODS OF USING THE SAME” (Cedilla Therapeutics, Inc., priority 2021, published 2024).

The test concerns the target CDK2/Cyclin E1 (Homo sapiens, UniProt P24941). Briefly: CDK2/Cyclin E1 Caliper LabChip EZ Reader mobility shift assay. On the set-up: purchased Eurofins 14-475. Type of test: biochemical. Conditions: read-out: Caliper Assay (CDK2/CCNE1): IC50. An outline of the steps: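 Substrate-to-product conversion of fluorescent peptide (1.5 μM final) read by capillary electrophoresis after 100 min reaction, EDTA-quenched. Enzyme (2.5 nM final) and ATP (100 μM final) were preincubated 30 min with inhibitor dilutions first. % activity vs concentration fitted four-parameter for IC50.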

As for `C[C@@H](OCC1CCC(F)(F)CC1)[C@H](NC(=O)[C@@H]1CN(C(=O)c2cn[nH]c2)CC12CN(C(=O)[C@H]1CC1(C)C)C2)C(=O)N1CCOCC1` [I-301, (S)—N-((2S,3R)-3-((4,4-difluorocyclohexyl)methoxy)-1-morpholino-1-oxobutan-2-yl)-2-((S)-2,2-dimethylcyclopropane-1-carbonyl)-6-(1H-pyrazole-4-carbonyl)-2,6-diazaspiro[3.4]octane-8-carboxamide], the IC50 was not above 10 nM.

With `C[C@@H](OCC1CCC(F)(F)CC1)[C@H](NC(=O)[C@@H]1CN(C(=O)c2cn[nH]c2)CC12CN(C(=O)C1(C(F)(F)F)CC1)C2)C(=O)N1CCOCC1` [I-302], the IC50 lay within 10 to 100 nM.

For the molecule `CO[C@H](C)[C@H](NC(=O)[C@@H]1CN(C(=O)c2cnn(C)c2)CC12CN(C(=O)[C@H]1CC1(C)C)C2)C(=O)N1CCCCC1` [I-303], the IC50 is more than 10000 nM.

Regarding `C[C@@H](OCC12CCC(CC1)CC2)[C@H](NC(=O)[C@@H]1CN(C(=O)c2cncs2)CC12CN(C(=O)[C@H]1CC1(C)C)C2)C(C)(C)O` [I-304], the IC50 was not above 10 nM.

With `C[C@@H](O)[C@H](NC(=O)[C@@H]1CN(C(=O)c2cnn(C)c2)CC12CN(C(=O)[C@H]1CC1(C)C)C2)C(=O)N1CCCCC1` [I-305], the IC50 is more than 10000 nM.

Consider `CO[C@H](C)[C@H](NC(=O)[C@@H]1CN(C(=O)c2cnn(Cc3ccccc3)c2)CC12CN(C(=O)[C@H]1CC1(C)C)C2)C(=O)N1CCC(CN)CC1` [I-306], for which the IC50 is 1000 to 10000 nM.

For the molecule `C[C@@H](OCC1CCCCC1)[C@@H](CO)NC(=O)[C@@H]1CN(C(=O)c2cncs2)CC12CN(C(=O)[C@H]1CC1(C)C)C2` [I-307], the IC50 is 10 to 100 nM.

`C[C@@H](OCC1CCCCC1)[C@@H](COC1CCCCC1)NC(=O)[C@@H]1CN(C(=O)c2cncs2)CC12CN(C(=O)[C@H]1CC1(C)C)C2` [I-308]: the IC50 was not above 10 nM.

As to `C[C@@H](OCC1CCCCC1)[C@@H](COC(F)(F)F)NC(=O)[C@@H]1CN(C(=O)c2cnn(Cc3ccccc3)c2)CC12CN(C(=O)[C@H]1CC1(C)C)C2` [I-309], the IC50 fell in the range of 10 to 100 nM.

As to `Cc1cc(C(=O)N2CC(C(=O)N[C@H](C(=O)N3CCCCC3)[C@@H](C)OCC3CCCCC3)C3(C2)CN(C(=O)[C@H]2CC2(C)C)C3)sn1` (stereo partly shown) [I-311], the IC50 was not above 10 nM.

For the molecule `C[C@@H](OCC1CCOCC1)[C@@H](COC1CCC(F)(F)CC1)NC(=O)[C@@H]1CN(C(=O)c2cncs2)CC12CN(C(=O)[C@H]1CC1(C)C)C2` [I-312], the IC50 was 10 to 100 nM.

In the case of `C[C@@H](OCC1CCC(F)(F)CC1)[C@H](NC(=O)[C@@H]1CN(C(=O)c2cncs2)CC12CN(C(=O)[C@H]1CC1(C)C)C2)C(C)(C)O` [I-313], the IC50 was not above 10 nM.

`C[C@@H](OCC1CCC(F)(F)CC1)[C@@H](COC1CCOCC1)NC(=O)[C@@H]1CN(C(=O)c2cncs2)CC12CN(C(=O)[C@H]1CC1(C)C)C2` [I-314]: the IC50 was not above 10 nM.

Turning to `C[C@@H](OCC1CCC(F)(F)CC1)[C@@H](COC1CCC(F)(F)CC1)NC(=O)[C@@H]1CN(C(=O)c2cncs2)CC12CN(C(=O)[C@H]1CC1(C)C)C2` [I-315], the IC50 is not above 10 nM.

For the molecule `CC(O[C@H](C)[C@@H](COC1CCC(F)(F)CC1)NC(=O)[C@@H]1CN(C(=O)c2cncs2)CC12CN(C(=O)[C@H]1CC1(F)F)C2)C1CCC(F)(F)CC1` (stereo partly shown) [I-316], the IC50 was in the range of 100 to 1000 nM.

Consider `COC[C@H]1CCCN(C(=O)[C@@H](NC(=O)[C@@H]2CN(C(=O)c3cncs3)CC23CN(C(=O)[C@H]2CC2(C)C)C3)[C@@H](C)OCc2ccc(Cl)cc2F)C1` [I-317], for which the IC50 is not above 10 nM.

On to `COC[C@H]1CCCN(C(=O)[C@@H](NC(=O)[C@@H]2CN(C(=O)c3cncs3)CC23CN(C(=O)[C@H]2CC2(C)C)C3)[C@@H](C)OCc2ccc(F)cc2)C1` [I-318], for which the IC50 is not above 10 nM.

`COC[C@H]1CCCN(C(=O)[C@@H](NC(=O)[C@@H]2CN(C(=O)c3cncs3)CC23CN(C(=O)[C@H]2CC2(C)C)C3)[C@@H](C)OCc2ccc(C(F)(F)F)cc2)C1` [I-319]: the IC50 was not above 10 nM.

`COC[C@H]1CCCN(C(=O)[C@@H](NC(=O)[C@@H]2CN(C(=O)c3cncs3)CC23CN(C(=O)[C@H]2CC2(C)C)C3)[C@@H](C)OCc2ccc(OC(F)(F)F)cc2)C1` [I-320]: the IC50 is not above 10 nM.

For the molecule `COC[C@H]1CCCN(C(=O)[C@@H](NC(=O)[C@@H]2CN(C(=O)c3cncs3)CC23CN(C(=O)[C@H]2CC2(C)C)C3)[C@@H](C)OCc2ccccc2F)C1` [I-321], the IC50 is 10 to 100 nM.

Regarding `COC[C@H]1CCCN(C(=O)[C@@H](NC(=O)[C@@H]2CN(C(=O)c3cncs3)CC23CN(C(=O)[C@H]2CC2(C)C)C3)[C@@H](C)OCc2cccc(F)c2)C1` [I-322], the IC50 was not above 10 nM.

Consider `COC[C@H]1CCCN(C(=O)CNC(=O)[C@@H]2CN(C(=O)c3cncs3)CC23CN(C(=O)[C@H]2CC2(C)C)C3)C1` [I-323], for which the IC50 fell in the range of 1000 to 10000 nM.

Consider `COC[C@H]1CCCN(C(=O)[C@@H](C)NC(=O)[C@@H]2CN(C(=O)c3cncs3)CC23CN(C(=O)[C@H]2CC2(C)C)C3)C1` [I-324], for which the IC50 fell in the range of 1000 to 10000 nM.

Regarding `COC[C@H]1CCCN(C(=O)[C@H](C)NC(=O)[C@@H]2CN(C(=O)c3cncs3)CC23CN(C(=O)[C@H]2CC2(C)C)C3)C1` [I-325], the IC50 lay in the range of 1000 to 10000 nM.

Turning to `C[C@@H](OCC1CCC(F)(F)CC1)[C@H](NC(=O)[C@@H]1CN(C(=O)c2cncs2)CC12CN(C(=O)[C@H]1CC1(C)C)C2)C(=O)N1CCC[C@H](COC(F)(F)F)C1` [I-326], the IC50 was not above 10 nM.

With `C[C@@H](OCC1CCOCC1)[C@H](NC(=O)[C@@H]1CN(C(=O)c2cncs2)CC12CN(C(=O)[C@H]1CC1(C)C)C2)C(=O)N1CCC[C@H](COC(F)(F)F)C1` [I-327], the IC50 fell in the range of 10 to 100 nM.

`C[C@@H](OCC1CCCCC1)[C@H](NC(=O)[C@@H]1CN(C(=O)c2cncs2)CC12CN(C(=O)[C@H]1CC1(C)C)C2)C(=O)N1CCNCC1` [I-328]: the IC50 is not above 10 nM.

As for `C[C@@H](OCC1CCCCC1)[C@@H](COC1CCNCC1)NC(=O)[C@@H]1CN(C(=O)c2cncs2)CC12CN(C(=O)[C@H]1CC1(C)C)C2` [I-329], the IC50 was not above 10 nM.

On to `C[C@@H](OCC1CCCCC1)[C@@H](COC1CCOCC1)NC(=O)[C@@H]1CN(C(=O)c2cncs2)CC12CN(C(=O)[C@H]1CC1(C)C)C2` [I-331], for which the IC50 was not above 10 nM.

Regarding `C[C@@H](OCC1CCCCC1)[C@@H](COC1CCCNC1)NC(=O)[C@@H]1CN(C(=O)c2cncs2)CC12CN(C(=O)[C@H]1CC1(C)C)C2` (stereo partly shown) [I-332], the IC50 is not above 10 nM.

Regarding `C[C@@H](OCC1CCOCC1)[C@@H](COC1CCC(F)(F)CC1)NC(=O)[C@@H]1CN(C(=O)c2cncs2)CC12CN(C(=O)C(C)(C)C1CC1)C2` [I-333, (S)-2-(2-cyclopropyl-2-methylpropanoyl)-N-((2R,3R)-1-((4,4-difluorocyclohexyl)oxy)-3-((tetrahydro-2H-pyran-4-yl)methoxy)butan-2-yl)-6-(thiazole-5-carbonyl)-2,6-diazaspiro[3.4]octane-8-carboxamide], the IC50 fell in the range of 10 to 100 nM.

Regarding `C[C@@H](OCC12CCC(CC1)OC2)[C@H](NC(=O)[C@@H]1CN(C(=O)c2cncs2)CC12CN(C(=O)C(C)(C)C1CC1)C2)C(C)(C)O` [I-334], the IC50 lay within 100 to 1000 nM.

On to `C[C@@H](OCC1CCC(F)(F)CC1)[C@H](NC(=O)[C@@H]1CN(C(=O)c2cncs2)CC12CN(C(=O)[C@H]1CC1(C)C)C2)C(=O)N1CCC2(CC1)COC2` [I-335], for which the IC50 was not above 10 nM.

As for `C[C@@H](OCC12CCC(CC1)OC2)[C@H](NC(=O)[C@@H]1CN(C(=O)c2cncs2)CC12CN(C(=O)[C@H]1CC1(C)C)C2)C(=O)N1CCC2(CC1)COC2` [I-336], the IC50 is not above 10 nM.

Consider `C[C@@H](OCC1CCC(F)(F)CC1)[C@H](NC(=O)[C@@H]1CN(C(=O)c2cncs2)CC12CN(C(=O)C(C)(C)C1CC1)C2)C(=O)N1CCC(O)CC1` [I-337], for which the IC50 is not above 10 nM.

Take `CNC(=O)C(NC(=O)[C@@H]1CN(C(=O)c2cncs2)CC12CN(C(=O)C(C)(C)C1CC1)C2)c1cccc(C2CCOCC2)n1` (stereo partly shown) [I-338]: the IC50 was more than 10000 nM.

As for `CC(C)(O)C(NC(=O)[C@@H]1CN(C(=O)c2cncs2)CC12CN(C(=O)C(C)(C)C1CC1)C2)c1cccc(C2CCOCC2)n1` (stereo partly shown) [I-339], the IC50 lay in the range of 1000 to 10000 nM.

Turning to `CN(C)C(=O)C(NC(=O)[C@@H]1CN(C(=O)c2cncs2)CC12CN(C(=O)C(C)(C)C1CC1)C2)c1cccc(C2CCOCC2)n1` (stereo partly shown) [I-340], the IC50 was in the range of 1000 to 10000 nM.

For the molecule `C[C@@H](OCC1CCOCC1)[C@H](NC(=O)[C@@H]1CN(C(=O)c2cncs2)CC12CN(C(=O)C(C)(C)C1CC1)C2)C(C)(C)O` [I-341], the IC50 lay in the range of 100 to 1000 nM.

For the molecule `CNC(=O)[C@@H](NC(=O)[C@@H]1CN(C(=O)c2cncs2)CC12CN(C(=O)[C@H]1CC1(C)C)C2)[C@@H](C)OCC12CCC(CC1)OC2` [I-342], the IC50 was 10 to 100 nM.

Take `Cc1nc(C)c(C(=O)N2C[C@@H](C(=O)N[C@H](C(=O)N3CCC4(CC3)COC4)[C@@H](C)OCC34CCC(CC3)OC4)C3(C2)CN(C(=O)[C@H]2CC2(C)C)C3)s1` [I-343]: the IC50 is not above 10 nM.

For the molecule `CNC(=O)[C@@H](NC(=O)[C@@H]1CN(C(=O)c2cncs2)CC12CN(CC1CCCC1)C2)[C@@H](C)OCC12CCC(CC1)OC2` [I-344, (S)—N-((2S,3R)-3-(2-oxabicyclo[2.2.2]octan-4-ylmethoxy)-1-(methylamino)-1-oxobutan-2-yl)-2-(cyclopentylmethyl)-6-(thiazole-5-carbonyl)-2,6-diazaspiro[3.4]octane-8-carboxamide], the IC50 is more than 10000 nM.

As to `CNC(=O)[C@@H](NC(=O)[C@@H]1CN(C(=O)c2cncs2)CC12CN(CC1CCOC1)C2)[C@@H](C)OCC12CCC(CC1)OC2` (stereo partly shown) [I-345], the IC50 is more than 10000 nM.

On to `CNC(=O)[C@@H](NC(=O)[C@@H]1CN(C(=O)c2cncs2)CC12CN(CC(C)(C)C)C2)[C@@H](C)OCC12CCC(CC1)OC2` [I-347], for which the IC50 is more than 10000 nM.

In the case of `CNC(=O)[C@@H](NC(=O)[C@@H]1CN(C(=O)c2cncs2)CC12CN(CC1COC1)C2)[C@@H](C)OCC12CCC(CC1)OC2` [I-348], the IC50 was 1000 to 10000 nM.

Turning to `CNC(=O)[C@@H](NC(=O)[C@@H]1CN(C(=O)c2cncs2)CC12CN(Cc1ccco1)C2)[C@@H](C)OCC12CCC(CC1)OC2` [I-349], the IC50 is more than 10000 nM.
